# In patent US20230139445A1, “BACTERIAL CELLS WITH IMPROVED TOLERANCE TO DIACIDS” (priority 2016, published 2023):
# Where two headings read alike, the source gives them in different places.
# Legend:
# [1] = test system: Escherichia coli K-12 MG1655; test: Screening for tolerance in wild-type cells: growth in varying concentrations of neutralized diacid, Biolector; assay type: cell-based; conditions: for tlag (lag time), mean / μ (growth rate), mean: neutralized with sodium hydroxide
# Description: Escherichia coli K-12 MG1655 was grown overnight in M9 minimal medium+1% glucose and subcultured the following morning to an initial OD600 of 0.05 in M9+1% glucose. Cells were grown to mid-exponential phase (OD600 0.7-1.0) and were back-diluted with fresh medium to an OD600 of 0.7. The diluted cells were used to inoculate M9+1% glucose containing varying concentrations of glutaric acid or adipic acid which were neutralized to pH 7.0 with sodium hydroxide, and growth was measured in FlowerPlates in a Biolector microbioreactor system (m2p-labs) at 37° C. with 1000 rpm shaking. The culture volume in each well was 1.4 mL.
# [2] = test system: Escherichia coli K-12 MG1655 and evolved isolates; assay type: cell-based; conditions: 45 g/L pimelic acid
# Description: Five colonies from wild-type K-12 MG1655 and 10 individual colonies deriving from each population were inoculated into 300 μL M9+1% glucose in 96 well deepwell plates and incubated in a 300 rpm plate shaker at 37° C. The next day, cells were diluted 10× in M9+1% glucose and 30 μL was transferred into clear-bottomed 96 well half-deepwell plates (with rectangular wells) containing M9+1% glucose and M9+1% glucose+52.78 g/L glutaric acid or 55.56 g/L adipic acid, such that the final concentration of glutaric acid or adipic acid was 47.5 g/L or 50 g/L, respectively. In addition, cryogenic glycerol stocks of the overnight culture were saved in a 96 well plate format. Half deepwell plates were incubated at 37° C. with 225 rpm shaking in a Growth Profiler (Enzyscreen), with optical scans of the plates taken at 15 minute intervals. Green pixel values integrated over a 1 mm diameter circular area in each well were converted to OD600 values using a previously determined calibration between OD600 and green pixel values.
# Additionally, each evolved isolate was tested for cross-tolerance toward other dicarboxylic acids of interest. […] All diacids tested were either the neutral sodium salts, or the free diacid was neutralized with sodium hydroxide to pH 7.0 for testing.
smiles,measurement,setting,value
O=C(O)CCCCCC(=O)O [pimelic acid],"tlag (lag time), mean",[1]; 10 g/L,1.9 h
same,"μ (growth rate), mean","[1]; 10 g/L, M9+1% glucose, 37° C",0.694 h⁻¹
same,"tlag (lag time), mean",[1]; 20 g/L,2.4 h
same,"μ (growth rate), mean",[1]; 20 g/L,0.656 h⁻¹
same,"tlag (lag time), mean",[1]; 25 g/L,2.5 h
same,"μ (growth rate), mean",[1]; 25 g/L,0.572 h⁻¹
same,"tlag (lag time), mean",[1]; 30 g/L,3.3 h
same,"μ (growth rate), mean",[1]; 30 g/L,0.560 h⁻¹
same,"tlag (lag time), mean",[1]; 35 g/L,4.1 h
same,"μ (growth rate), mean",[1]; 35 g/L,0.534 h⁻¹
same,"tlag (lag time), mean",[1]; 40 g/L,4.3 h
same,"μ (growth rate), mean",[1]; 40 g/L,0.439 h⁻¹
same,"tlag (lag time), mean",[1]; 45 g/L,4.6 h
same,"μ (growth rate), mean",[1]; 45 g/L,0.280 h⁻¹
same,growth of K-12 MG1655,[1]; at 45 g/L,Robust growth was still observed
same,growth rate μ (mean),[2]; strain ADIP1-1,0.432 h⁻¹
same,lag time tlag (mean),[2]; strain ADIP1-1,9.6 h
same,growth rate μ (mean),[2]; strain ADIP1-9,0.421 h⁻¹
same,lag time tlag (mean),[2]; strain ADIP1-9,8.8 h
same,growth rate μ (mean),[2]; strain ADIP2-5,0.474 h⁻¹
same,lag time tlag (mean),[2]; strain ADIP2-5,11.0 h
same,growth rate μ (mean),[2]; strain ADIP2-6,0.480 h⁻¹
same,lag time tlag (mean),[2]; strain ADIP2-6,10.6 h
same,growth rate μ (mean),[2]; strain ADIP2-10,0.479 h⁻¹
same,lag time tlag (mean),[2]; strain ADIP2-10,10.8 h
same,growth rate μ (mean),[2]; strain ADIP3-2,0.438 h⁻¹
same,lag time tlag (mean),[2]; strain ADIP3-2,8.4 h
same,growth rate μ (mean),[2]; strain ADIP3-4,0.435 h⁻¹
same,lag time tlag (mean),[2]; strain ADIP3-4,8.5 h
same,growth rate μ (mean),[2]; strain ADIP3-8,0.426 h⁻¹
same,lag time tlag (mean),[2]; strain ADIP3-8,9.1 h
same,growth rate μ (mean),[2]; strain ADIP4-1,0.348 h⁻¹
same,lag time tlag (mean),[2]; strain ADIP4-1,9.9 h
same,growth rate μ (mean),[2]; strain ADIP4-8,0.349 h⁻¹
same,lag time tlag (mean),[2]; strain ADIP4-8,10.3 h
same,growth rate μ (mean),[2]; strain ADIP5-2,0.385 h⁻¹
same,lag time tlag (mean),[2]; strain ADIP5-2,8.7 h
same,growth rate μ (mean),[2]; strain ADIP5-6,0.483 h⁻¹
same,lag time tlag (mean),[2]; strain ADIP5-6,8.5 h
same,growth rate μ (mean),[2]; strain ADIP6-3,0.346 h⁻¹
same,lag time tlag (mean),[2]; strain ADIP6-3,10.4 h
same,growth rate μ (mean),[2]; strain ADIP6-9,0.278 h⁻¹
same,lag time tlag (mean),[2]; strain ADIP6-9,11.1 h
same,growth rate μ (mean),[2]; strain ADIP6-10,0.360 h⁻¹
same,lag time tlag (mean),[2]; strain ADIP6-10,9.7 h
same,growth rate μ (mean),[2]; strain ADIP7-2,0.393 h⁻¹
same,lag time tlag (mean),[2]; strain ADIP7-2,9.0 h
same,growth rate μ (mean),[2]; strain ADIP7-5,0.376 h⁻¹
same,lag time tlag (mean),[2]; strain ADIP7-5,9.4 h
same,growth rate μ (mean),[2]; strain ADIP8-3,0.235 h⁻¹
same,lag time tlag (mean),[2]; strain ADIP8-3,12.8 h
same,growth rate μ (mean),[2]; strain ADIP8-7,0.268 h⁻¹
same,lag time tlag (mean),[2]; strain ADIP8-7,12.8 h
same,growth rate μ (mean),[2]; strain ADIP8-10,0.249 h⁻¹
same,lag time tlag (mean),[2]; strain ADIP8-10,12.8 h
same,growth rate μ (mean),[2]; strain GLUT1-3,0.369 h⁻¹
same,lag time tlag (mean),[2]; strain GLUT1-3,10.4 h
same,growth rate μ (mean),[2]; strain GLUT1-9,0.337 h⁻¹
same,lag time tlag (mean),[2]; strain GLUT1-9,11.9 h
same,growth rate μ (mean),[2]; strain GLUT1-10,0.399 h⁻¹
same,lag time tlag (mean),[2]; strain GLUT1-10,13.1 h
same,growth rate μ (mean),[2]; strain GLUT2-1,0.362 h⁻¹
same,lag time tlag (mean),[2]; strain GLUT2-1,11.6 h
same,growth rate μ (mean),[2]; strain GLUT2-9,0.349 h⁻¹
same,lag time tlag (mean),[2]; strain GLUT2-9,10.3 h
same,growth rate μ (mean),[2]; strain GLUT2-10,0.383 h⁻¹
same,lag time tlag (mean),[2]; strain GLUT2-10,10.2 h
same,growth rate μ (mean),[2]; strain GLUT3-5,0.280 h⁻¹
same,lag time tlag (mean),[2]; strain GLUT3-5,17.6 h
same,growth rate μ (mean),[2]; strain GLUT3-7,0.360 h⁻¹
same,lag time tlag (mean),[2]; strain GLUT3-7,11.5 h
same,growth rate μ (mean),[2]; strain GLUT3-9,0.351 h⁻¹
same,lag time tlag (mean),[2]; strain GLUT3-9,15.7 h
same,growth rate μ (mean),[2]; strain GLUT4-1,0.378 h⁻¹
same,lag time tlag (mean),[2]; strain GLUT4-1,12.8 h
same,growth rate μ (mean),[2]; strain GLUT4-4,0.388 h⁻¹
same,lag time tlag (mean),[2]; strain GLUT4-4,13.2 h
same,growth rate μ (mean),[2]; strain GLUT4-10,0.371 h⁻¹
same,lag time tlag (mean),[2]; strain GLUT4-10,11.5 h
same,growth rate μ (mean),[2]; strain GLUT5-4,0.433 h⁻¹
same,lag time tlag (mean),[2]; strain GLUT5-4,12.1 h
same,growth rate μ (mean),[2]; strain GLUT5-5,0.420 h⁻¹
same,lag time tlag (mean),[2]; strain GLUT5-5,12.8 h
same,growth rate μ (mean),[2]; strain GLUT5-9,0.428 h⁻¹
same,lag time tlag (mean),[2]; strain GLUT5-9,13.0 h
same,growth rate μ (mean),[2]; strain GLUT6-4,0.356 h⁻¹
same,lag time tlag (mean),[2]; strain GLUT6-4,11.7 h
same,growth rate μ (mean),[2]; strain GLUT6-5,0.348 h⁻¹
same,lag time tlag (mean),[2]; strain GLUT6-5,11.3 h
same,growth rate μ (mean),[2]; strain GLUT6-10,0.353 h⁻¹
same,lag time tlag (mean),[2]; strain GLUT6-10,12.1 h
same,growth rate μ (mean),[2]; strain GLUT7-2,0.349 h⁻¹
same,lag time tlag (mean),[2]; strain GLUT7-2,11.6 h
same,growth rate μ (mean),[2]; strain GLUT7-6,0.357 h⁻¹
same,lag time tlag (mean),[2]; strain GLUT7-6,14.8 h
same,growth rate μ (mean),[2]; strain GLUT7-7,0.335 h⁻¹
same,lag time tlag (mean),[2]; strain GLUT7-7,14.1 h
same,growth rate μ (mean),[2]; strain GLUT8-5,0.349 h⁻¹
same,lag time tlag (mean),[2]; strain GLUT8-5,11.8 h
same,growth rate μ (mean),[2]; strain GLUT8-6,0.184 h⁻¹
same,lag time tlag (mean),[2]; strain GLUT8-6,20.9 h
same,growth rate μ (mean),[2]; strain GLUT8-9,0.259 h⁻¹
same,lag time tlag (mean),[2]; strain GLUT8-9,11.2 h
same,growth rate μ (mean),[2]; strain MG1655 (Table 28),0.275 h⁻¹
same,lag time tlag (mean),[2]; strain MG1655 (Table 28),13.4 h
same,growth rate μ (mean),[2]; strain MG1655 (Table 29),0.271 h⁻¹
same,lag time tlag (mean),[2]; strain MG1655 (Table 29),12.4 h
